pIC50: −log10 of the molar value.
Molecular target: T1, Sortase A (SrtA) (Staphylococcus aureus, UniProt Q2FV99)
T1 construct: pET28a-SrtA, recombinant, nickel-purified
Test: FRET cleavage assay with purified recombinant SrtA; reversible by dilution; binding supported by fluorescence quenching (KA […] L/mol)
Type: biochemical

T1 sequence (Q2FV99 whole entry): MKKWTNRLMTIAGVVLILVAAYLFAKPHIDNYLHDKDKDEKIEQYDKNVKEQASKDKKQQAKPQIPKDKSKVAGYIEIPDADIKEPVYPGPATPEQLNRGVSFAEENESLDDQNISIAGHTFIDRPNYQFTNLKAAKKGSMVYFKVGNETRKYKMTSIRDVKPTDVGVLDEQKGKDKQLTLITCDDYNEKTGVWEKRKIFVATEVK

O=C1C[C@@H](c2ccc(O)c(O)c2)Oc2cc(O)cc(O)c21 [eriodictyol]
pIC50: 5.11

Reference: publication PMC7929976, “Eriodictyol as a Potential Candidate Inhibitor of Sortase A Protects Mice From Methicillin-Resistant Staphylococcus aureus-Induced Pneumonia” (Frontiers in Microbiology, 2021)
